One compound from patent US20250057912A1, “Compounds” (priority 2021, published 2025) can be followed below.

In data set [1] the target is T1, α4β7 RPMI8866/MAdCAM-1 adhesion (Homo sapiens, UniProt P13612+P26010).
T1 construct: CFSE-labelled RPMI 8866 cells were added to the plate coated with rhMAdCAM-1; host or cells: RPMI 8866
T1 sequence (P13612 34-1032): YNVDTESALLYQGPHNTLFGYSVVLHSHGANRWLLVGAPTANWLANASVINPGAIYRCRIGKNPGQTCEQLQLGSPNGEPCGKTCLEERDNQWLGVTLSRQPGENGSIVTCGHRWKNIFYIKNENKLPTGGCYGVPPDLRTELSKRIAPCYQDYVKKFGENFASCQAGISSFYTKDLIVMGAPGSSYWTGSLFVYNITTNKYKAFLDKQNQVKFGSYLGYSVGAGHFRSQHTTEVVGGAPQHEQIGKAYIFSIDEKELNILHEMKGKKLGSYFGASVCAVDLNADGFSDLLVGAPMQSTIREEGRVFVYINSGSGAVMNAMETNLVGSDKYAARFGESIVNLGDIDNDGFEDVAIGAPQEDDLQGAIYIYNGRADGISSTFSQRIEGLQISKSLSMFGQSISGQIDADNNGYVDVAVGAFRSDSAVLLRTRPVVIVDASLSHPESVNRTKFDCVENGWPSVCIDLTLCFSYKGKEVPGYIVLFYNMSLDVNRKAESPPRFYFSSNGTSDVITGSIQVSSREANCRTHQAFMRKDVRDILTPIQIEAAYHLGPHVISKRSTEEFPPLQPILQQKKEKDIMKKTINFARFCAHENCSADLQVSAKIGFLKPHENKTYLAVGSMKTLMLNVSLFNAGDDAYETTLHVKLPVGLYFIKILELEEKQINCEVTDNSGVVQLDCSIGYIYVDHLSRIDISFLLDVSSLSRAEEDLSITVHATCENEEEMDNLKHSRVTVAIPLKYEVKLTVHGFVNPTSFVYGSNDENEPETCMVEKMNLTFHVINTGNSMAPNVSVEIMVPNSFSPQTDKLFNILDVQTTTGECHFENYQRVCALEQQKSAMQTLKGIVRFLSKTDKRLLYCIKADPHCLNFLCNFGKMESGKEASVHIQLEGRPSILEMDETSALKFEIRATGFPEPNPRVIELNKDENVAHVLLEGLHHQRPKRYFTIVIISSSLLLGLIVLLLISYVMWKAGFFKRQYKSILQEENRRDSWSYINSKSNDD
T1 sequence (P26010 20-798): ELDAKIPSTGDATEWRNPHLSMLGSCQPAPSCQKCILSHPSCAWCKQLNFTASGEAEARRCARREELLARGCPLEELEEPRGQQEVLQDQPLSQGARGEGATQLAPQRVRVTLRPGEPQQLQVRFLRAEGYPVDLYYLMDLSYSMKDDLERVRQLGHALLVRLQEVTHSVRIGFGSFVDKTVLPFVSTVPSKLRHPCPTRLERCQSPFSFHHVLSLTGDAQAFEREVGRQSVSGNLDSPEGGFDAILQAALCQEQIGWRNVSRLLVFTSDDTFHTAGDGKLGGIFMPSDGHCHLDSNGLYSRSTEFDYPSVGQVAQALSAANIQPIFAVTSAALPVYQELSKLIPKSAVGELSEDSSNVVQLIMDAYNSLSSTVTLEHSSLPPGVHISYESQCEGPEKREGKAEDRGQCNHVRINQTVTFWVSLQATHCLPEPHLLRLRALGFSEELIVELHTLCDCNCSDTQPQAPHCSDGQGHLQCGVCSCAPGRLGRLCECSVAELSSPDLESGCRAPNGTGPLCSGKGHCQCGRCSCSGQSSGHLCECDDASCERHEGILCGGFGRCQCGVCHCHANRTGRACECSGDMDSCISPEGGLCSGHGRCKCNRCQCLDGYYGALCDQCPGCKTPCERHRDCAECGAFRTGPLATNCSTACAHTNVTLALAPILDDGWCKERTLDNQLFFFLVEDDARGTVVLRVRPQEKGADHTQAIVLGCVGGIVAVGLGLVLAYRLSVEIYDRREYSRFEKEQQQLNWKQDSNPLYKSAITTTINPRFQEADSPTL
Description: Integrin α4β7-MAdCAM cell adhesion assay, RPMI8866 cells (Example 7). Type of data set: cell-based.
Description: The cells were pelleted by centrifugation and resuspended in fresh pre-warmed complete culture medium and the cells were counted. […]

For data set [2], the target named is T2, α4β1 RAMOS/VCAM-1 adhesion (Homo sapiens, UniProt P05556+P13612).
T2 construct: host or cells: RAMOS
Description: Integrin α4β1-VCAM-1 cell adhesion assay, RAMOS cells (Example 7). The class given is cell-based. To be noted: rhVCAM-1 coated plate, DMEM binding buffer. Here is the method: The human B lymphocyte cell line RAMOS was obtained from the Zealand Pharma culture collection.
Compound 1 and Comparative compounds 1 and 2 were reconstituted in DMSO to a concentration of 10 mM.
CFSE-labelled RPMI 8866 cells were added to the plate coated with rhMAdCAM-1 and CFSE-labelled RAMOS cells were added to the plate coated with rhVCAM-1.
After incubation, unbound cells were washed away. The cell plates were emptied by inverting and residues of liquid were removed by blotting on paper towel.

Data set [3] in a line: Pharmacokinetic characterisation in Beagle dogs, single s.c. injection, dose range (Example 6). The class given is in vivo. To be noted: male, plasma, dog, SC. An excerpt:
The dosing vehicle was PBS buffer, pH 7.

The structures appear in SMILES notation.

T2 sequence (P05556 21-798, one chain of several): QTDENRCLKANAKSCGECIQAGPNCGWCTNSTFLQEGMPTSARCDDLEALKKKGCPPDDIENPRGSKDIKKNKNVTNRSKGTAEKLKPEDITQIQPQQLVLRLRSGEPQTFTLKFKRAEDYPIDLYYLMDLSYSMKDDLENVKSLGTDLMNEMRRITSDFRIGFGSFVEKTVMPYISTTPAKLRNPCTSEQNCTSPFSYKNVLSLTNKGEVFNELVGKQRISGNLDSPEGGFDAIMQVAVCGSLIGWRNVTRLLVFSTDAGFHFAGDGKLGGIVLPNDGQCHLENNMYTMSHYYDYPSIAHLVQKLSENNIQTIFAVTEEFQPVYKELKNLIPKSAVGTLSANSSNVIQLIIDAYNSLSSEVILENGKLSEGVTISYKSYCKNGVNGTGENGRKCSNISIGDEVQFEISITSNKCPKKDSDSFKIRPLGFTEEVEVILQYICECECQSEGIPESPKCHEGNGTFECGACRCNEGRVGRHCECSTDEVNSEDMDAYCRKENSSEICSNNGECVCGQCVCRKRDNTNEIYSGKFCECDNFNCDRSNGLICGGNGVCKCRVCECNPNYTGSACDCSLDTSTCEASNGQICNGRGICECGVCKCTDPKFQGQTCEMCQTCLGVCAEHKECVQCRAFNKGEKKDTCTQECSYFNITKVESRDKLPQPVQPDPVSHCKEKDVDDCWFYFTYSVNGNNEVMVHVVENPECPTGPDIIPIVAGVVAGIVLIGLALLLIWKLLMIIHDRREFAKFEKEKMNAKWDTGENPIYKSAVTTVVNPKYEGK

For `CC[C@H](C)[C@@H]1NC(=O)[C@H](CC(=O)O)NC(=O)[C@H](CC(C)C)NC(=O)c2ccc(-c3ccc(N4CCN(C(=O)c5ccccc5-c5ccccc5C(=O)N5CCN(c6ccc(-c7ccc8cc7CNC(=O)[C@@H]7CCCN7[C@H](C(=O)NC(C)(C)C)[C@H](C)NC(=O)[C@H]([C@@H](C)CC)NC(=O)[C@H](CC(=O)O)NC(=O)[C@H](CC(C)C)NC8=O)cc6)CC5)CC4)cc3)c(c2)CNC(=O)[C@@H]2CCCN2[C@H](C(=O)NC(C)(C)C)[C@H](C)NC1=O` [Compound 1], the IC50 amounted to 0.0072 µM in data set [1] (RPMI 8866 cells, rhMAdCAM-1 coated plate, DMEM binding buffer) and 0.115 µM in data set [2]. Also, the Selectivity ratio in data set [1] (α4β1 RAMOS/VCAM-1 IC50 versus α4β7 RPMI8866/MAdCAM-1 IC50) came to 16.0. Besides, the AUC worked out at 2.46 µM·h in data set [3] (10 ug/kg); 5.68 µM·h in data set [3] (20 ug/kg); 11.6 µM·h in data set [3] (50 ug/kg); 58.6 µM·h in data set [3] (100 ug/kg); 72.5 µM·h in data set [3] (200 ug/kg); 158 µM·h in data set [3] (400 ug/kg).
